How the values were obtained:
[1] = target: Cysteinyl leukotriene receptor 1 (Cavia porcellus, UniProt Q2NNR5)
[2] = target: 5-hydroxytryptamine receptor 6 (Homo sapiens, UniProt P50406)
[3] = target: Delta-type opioid receptor (Homo sapiens, UniProt P41143)
[4] = target: Kappa-type opioid receptor (Cavia porcellus, UniProt P41144)
[5] = target: 5-hydroxytryptamine receptor 2C (Homo sapiens, UniProt P28335)
[6] = target: D(4) dopamine receptor (Homo sapiens, UniProt P21917)
[7] = target: 5-hydroxytryptamine receptor 2A (Homo sapiens, UniProt P28223)
[8] = target: Substance-K receptor (Homo sapiens, UniProt P21452)
[9] = target: 5-hydroxytryptamine receptor 3A (Mus musculus, UniProt P23979)
[10] = target: Norepinephrine transporter (Rattus norvegicus, UniProt Q9JIA2)
[11] = target: Neurotensin (Cavia porcellus, UniProt P32560)
[12] = target: Sodium- and chloride-dependent glycine transporter 1 (Rattus norvegicus, UniProt P28572)
Chain of Sodium- and chloride-dependent glycine transporter 1 (P28572 whole entry): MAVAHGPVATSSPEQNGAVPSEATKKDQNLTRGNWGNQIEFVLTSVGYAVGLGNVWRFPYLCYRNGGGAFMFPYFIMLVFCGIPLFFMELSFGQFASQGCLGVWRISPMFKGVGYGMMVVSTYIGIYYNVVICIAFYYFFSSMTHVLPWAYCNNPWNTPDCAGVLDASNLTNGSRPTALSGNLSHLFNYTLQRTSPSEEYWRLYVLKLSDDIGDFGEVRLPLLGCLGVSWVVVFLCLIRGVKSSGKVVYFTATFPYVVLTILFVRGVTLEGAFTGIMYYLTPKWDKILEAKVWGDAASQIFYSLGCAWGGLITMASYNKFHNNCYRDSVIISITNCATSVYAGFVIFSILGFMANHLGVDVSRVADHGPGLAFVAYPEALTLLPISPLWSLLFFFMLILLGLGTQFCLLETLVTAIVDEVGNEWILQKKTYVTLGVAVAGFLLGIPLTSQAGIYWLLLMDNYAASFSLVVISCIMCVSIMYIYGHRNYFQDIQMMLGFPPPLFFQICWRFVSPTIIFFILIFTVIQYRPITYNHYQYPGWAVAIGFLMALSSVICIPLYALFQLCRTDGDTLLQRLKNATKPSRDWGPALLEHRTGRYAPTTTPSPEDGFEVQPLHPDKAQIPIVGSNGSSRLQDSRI

[13] = target: 5-hydroxytryptamine receptor 1D (Homo sapiens, UniProt P28221)
[14] = target: Alpha-2C adrenergic receptor (Homo sapiens, UniProt P18825)
[15] = target: Glutamate receptor ionotropic, NMDA 1 (Rattus norvegicus, UniProt P35439)
[16] = target: Histamine H1 receptor (Homo sapiens, UniProt P35367)
[17] = target: D(3) dopamine receptor (Homo sapiens, UniProt P35462)
[18] = target: Thromboxane A2 receptor (Homo sapiens, UniProt P21731)
[19] = target: 5-hydroxytryptamine receptor 1A (Homo sapiens, UniProt P08908)
Chain of 5-hydroxytryptamine receptor 1A (P08908 whole entry): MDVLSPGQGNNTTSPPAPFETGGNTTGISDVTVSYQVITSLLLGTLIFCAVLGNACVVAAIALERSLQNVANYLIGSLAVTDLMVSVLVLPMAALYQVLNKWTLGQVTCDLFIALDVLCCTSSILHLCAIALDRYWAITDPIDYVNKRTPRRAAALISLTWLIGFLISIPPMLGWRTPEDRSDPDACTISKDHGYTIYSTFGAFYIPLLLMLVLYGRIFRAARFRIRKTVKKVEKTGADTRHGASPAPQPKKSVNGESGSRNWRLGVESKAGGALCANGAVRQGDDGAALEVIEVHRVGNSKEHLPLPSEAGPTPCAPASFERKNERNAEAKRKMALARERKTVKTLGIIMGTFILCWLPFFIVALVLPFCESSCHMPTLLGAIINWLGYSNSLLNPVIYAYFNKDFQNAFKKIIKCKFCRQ

[20] = target: 5-hydroxytryptamine receptor 5A (Homo sapiens, UniProt P47898)
Chain of 5-hydroxytryptamine receptor 5A (P47898 whole entry): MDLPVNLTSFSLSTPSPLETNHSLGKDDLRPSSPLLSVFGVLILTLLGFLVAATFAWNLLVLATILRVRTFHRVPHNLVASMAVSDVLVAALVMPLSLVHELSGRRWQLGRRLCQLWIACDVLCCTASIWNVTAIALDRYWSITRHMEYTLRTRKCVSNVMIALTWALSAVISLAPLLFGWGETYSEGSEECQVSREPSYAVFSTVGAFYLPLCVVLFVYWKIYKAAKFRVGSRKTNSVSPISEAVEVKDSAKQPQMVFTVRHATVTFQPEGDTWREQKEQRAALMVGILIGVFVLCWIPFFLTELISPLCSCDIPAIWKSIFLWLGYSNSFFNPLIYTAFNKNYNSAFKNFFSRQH

[21] = target: Gastrin/cholecystokinin type B receptor (Homo sapiens, UniProt P32239)
[22] = target: Voltage-dependent L-type calcium channel subunit alpha-1C (Rattus norvegicus, UniProt P22002)
[23] = target: Alpha-1A adrenergic receptor (Homo sapiens, UniProt P35348)
[24] = target: 5-hydroxytryptamine receptor 1E (Homo sapiens, UniProt P28566)
Chain of 5-hydroxytryptamine receptor 1E (P28566 whole entry): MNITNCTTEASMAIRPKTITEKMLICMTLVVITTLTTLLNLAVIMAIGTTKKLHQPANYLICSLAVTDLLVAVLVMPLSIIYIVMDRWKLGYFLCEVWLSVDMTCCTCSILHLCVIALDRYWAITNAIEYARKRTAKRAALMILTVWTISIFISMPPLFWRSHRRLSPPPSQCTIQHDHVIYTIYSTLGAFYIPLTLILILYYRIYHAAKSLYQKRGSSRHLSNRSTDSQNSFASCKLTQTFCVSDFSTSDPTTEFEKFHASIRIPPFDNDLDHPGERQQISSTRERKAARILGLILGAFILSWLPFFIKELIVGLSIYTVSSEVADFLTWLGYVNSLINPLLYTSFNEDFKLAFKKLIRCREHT

[25] = target: Mu-type opioid receptor (Homo sapiens, UniProt P35372)
Chain of Mu-type opioid receptor (P35372 whole entry): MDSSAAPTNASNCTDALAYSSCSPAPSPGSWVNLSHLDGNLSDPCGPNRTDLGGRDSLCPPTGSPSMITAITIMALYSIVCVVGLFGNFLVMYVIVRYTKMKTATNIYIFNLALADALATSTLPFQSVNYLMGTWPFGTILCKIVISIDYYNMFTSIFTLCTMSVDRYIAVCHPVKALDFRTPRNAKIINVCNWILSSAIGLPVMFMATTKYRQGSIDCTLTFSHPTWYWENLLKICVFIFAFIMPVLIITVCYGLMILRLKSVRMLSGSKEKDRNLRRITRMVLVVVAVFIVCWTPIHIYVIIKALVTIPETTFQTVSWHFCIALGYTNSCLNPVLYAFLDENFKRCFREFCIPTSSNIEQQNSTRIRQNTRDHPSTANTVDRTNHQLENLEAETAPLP

[26] = target: 5-hydroxytryptamine receptor 1F (Homo sapiens, UniProt P30939)
[27] = target: Beta-2 adrenergic receptor (Homo sapiens, UniProt P07550)
Chain of Beta-2 adrenergic receptor (P07550 whole entry): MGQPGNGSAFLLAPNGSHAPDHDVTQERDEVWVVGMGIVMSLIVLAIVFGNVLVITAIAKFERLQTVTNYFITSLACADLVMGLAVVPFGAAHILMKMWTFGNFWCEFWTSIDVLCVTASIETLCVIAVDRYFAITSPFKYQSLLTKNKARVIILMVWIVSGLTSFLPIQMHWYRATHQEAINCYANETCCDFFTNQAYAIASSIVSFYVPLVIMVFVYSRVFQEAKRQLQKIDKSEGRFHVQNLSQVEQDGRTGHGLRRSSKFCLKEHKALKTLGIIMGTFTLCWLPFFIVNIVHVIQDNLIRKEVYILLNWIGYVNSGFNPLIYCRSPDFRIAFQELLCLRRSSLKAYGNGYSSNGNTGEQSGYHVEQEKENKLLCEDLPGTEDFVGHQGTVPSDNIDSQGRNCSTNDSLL

[28] = target: Neuromedin-K receptor (Homo sapiens, UniProt P29371)
[29] = target: Sodium- and chloride-dependent glycine transporter 2 (Homo sapiens, UniProt Q9Y345)
[30] = target: Alpha-2B adrenergic receptor (Homo sapiens, UniProt P18089)
[31] = target: Sodium-dependent dopamine transporter (Rattus norvegicus, UniProt P23977)
Chain of Sodium-dependent dopamine transporter (P23977 whole entry): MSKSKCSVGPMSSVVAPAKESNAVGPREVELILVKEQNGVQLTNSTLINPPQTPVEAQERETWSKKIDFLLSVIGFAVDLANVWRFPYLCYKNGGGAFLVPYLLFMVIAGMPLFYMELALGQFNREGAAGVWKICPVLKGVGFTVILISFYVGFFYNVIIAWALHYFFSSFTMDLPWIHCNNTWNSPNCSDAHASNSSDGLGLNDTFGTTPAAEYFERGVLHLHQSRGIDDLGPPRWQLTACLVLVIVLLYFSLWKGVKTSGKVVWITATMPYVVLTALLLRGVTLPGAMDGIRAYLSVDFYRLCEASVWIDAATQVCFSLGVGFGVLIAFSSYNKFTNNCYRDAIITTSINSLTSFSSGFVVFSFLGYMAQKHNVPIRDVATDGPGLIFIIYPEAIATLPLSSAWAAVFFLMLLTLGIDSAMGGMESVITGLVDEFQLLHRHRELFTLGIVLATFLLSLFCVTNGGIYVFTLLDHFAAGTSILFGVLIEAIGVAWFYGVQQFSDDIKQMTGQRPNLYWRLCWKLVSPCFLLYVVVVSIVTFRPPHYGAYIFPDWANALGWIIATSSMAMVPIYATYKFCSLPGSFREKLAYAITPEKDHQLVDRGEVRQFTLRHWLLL

[32] = target: Alpha-2A adrenergic receptor (Homo sapiens, UniProt P08913)
[33] = target: Substance-P receptor (Homo sapiens, UniProt P25103)
Chain of Substance-P receptor (P25103 whole entry): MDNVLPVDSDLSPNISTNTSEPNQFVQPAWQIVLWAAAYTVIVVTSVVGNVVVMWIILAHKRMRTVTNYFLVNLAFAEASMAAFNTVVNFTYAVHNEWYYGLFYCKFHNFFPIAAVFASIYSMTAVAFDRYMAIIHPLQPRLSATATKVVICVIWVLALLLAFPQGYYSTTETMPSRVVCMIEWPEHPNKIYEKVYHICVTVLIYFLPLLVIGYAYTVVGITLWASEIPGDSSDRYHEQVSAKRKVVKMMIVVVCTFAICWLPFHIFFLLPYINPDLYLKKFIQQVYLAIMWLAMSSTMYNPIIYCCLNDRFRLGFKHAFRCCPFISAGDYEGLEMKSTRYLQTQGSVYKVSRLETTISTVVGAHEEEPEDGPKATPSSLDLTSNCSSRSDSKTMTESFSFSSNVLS

[34] = target: B2 bradykinin receptor (Homo sapiens, UniProt P30411)
[35] = target: Gastrin/cholecystokinin type B receptor (Rattus norvegicus, UniProt P30553)
Chain of Gastrin/cholecystokinin type B receptor (Rattus norvegicus, UniProt P30553) (P30553 whole entry): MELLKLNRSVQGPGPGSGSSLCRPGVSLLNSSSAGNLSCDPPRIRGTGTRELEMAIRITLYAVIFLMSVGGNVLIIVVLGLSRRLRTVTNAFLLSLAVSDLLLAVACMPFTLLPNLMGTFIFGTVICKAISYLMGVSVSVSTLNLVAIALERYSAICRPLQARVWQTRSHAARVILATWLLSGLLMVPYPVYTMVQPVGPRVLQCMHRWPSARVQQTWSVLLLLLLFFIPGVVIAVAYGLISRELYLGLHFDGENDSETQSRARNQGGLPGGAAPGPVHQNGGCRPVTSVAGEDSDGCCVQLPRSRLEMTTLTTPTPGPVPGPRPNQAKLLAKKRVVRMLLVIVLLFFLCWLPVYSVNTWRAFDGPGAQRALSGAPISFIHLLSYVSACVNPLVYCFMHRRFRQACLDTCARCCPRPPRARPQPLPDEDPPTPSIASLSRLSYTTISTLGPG

[36] = target: Beta-3 adrenergic receptor (Homo sapiens, UniProt P13945)
[37] = target: Beta-1 adrenergic receptor (Homo sapiens, UniProt P08588)
[38] = target: Vasoactive intestinal polypeptide receptor 1 (Homo sapiens, UniProt P32241)
[39] = target: 5-hydroxytryptamine receptor 7 (Homo sapiens, UniProt P34969)
Chain of 5-hydroxytryptamine receptor 7 (P34969 whole entry): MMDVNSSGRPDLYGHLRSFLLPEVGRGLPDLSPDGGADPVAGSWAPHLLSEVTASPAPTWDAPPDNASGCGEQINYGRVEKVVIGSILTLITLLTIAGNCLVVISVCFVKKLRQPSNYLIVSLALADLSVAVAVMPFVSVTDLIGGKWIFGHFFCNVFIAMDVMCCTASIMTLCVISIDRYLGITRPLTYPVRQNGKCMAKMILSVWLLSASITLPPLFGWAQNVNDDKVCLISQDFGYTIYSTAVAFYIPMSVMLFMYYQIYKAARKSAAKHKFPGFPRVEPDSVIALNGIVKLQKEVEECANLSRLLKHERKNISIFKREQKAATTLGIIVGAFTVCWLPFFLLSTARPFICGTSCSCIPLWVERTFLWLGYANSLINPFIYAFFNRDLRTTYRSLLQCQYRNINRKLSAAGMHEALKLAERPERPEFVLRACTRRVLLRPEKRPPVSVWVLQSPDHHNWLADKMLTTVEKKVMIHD

Chain of Delta-type opioid receptor (P41143 whole entry): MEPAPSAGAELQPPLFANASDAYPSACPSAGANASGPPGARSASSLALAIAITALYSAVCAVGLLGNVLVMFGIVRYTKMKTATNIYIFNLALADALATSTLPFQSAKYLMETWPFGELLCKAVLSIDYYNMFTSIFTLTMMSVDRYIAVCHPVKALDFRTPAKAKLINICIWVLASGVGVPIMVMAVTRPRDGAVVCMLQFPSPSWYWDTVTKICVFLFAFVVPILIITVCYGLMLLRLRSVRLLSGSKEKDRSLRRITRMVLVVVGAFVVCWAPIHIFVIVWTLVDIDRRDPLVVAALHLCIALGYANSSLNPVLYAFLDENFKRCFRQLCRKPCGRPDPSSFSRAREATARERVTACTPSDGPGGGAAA

For `COCCCN1CCC(NC(=O)c2cc(Cl)c(N)c3c2OCC3)CC1` [4-Amino-5-chloro-2,3-dihydro-benzofuran-7-carboxylic acid [1-(3-methoxy-propyl)-piperidin-4-yl]-amide], the Ki [1] was greater than 10 µM, the Ki [2] was greater than 10 µM and the Ki [3] was greater than 10 µM. The Ki [4] was greater than 10 µM, the Ki [5] was greater than 10 µM and the Ki [6] was 2.35 µM. For the same molecule, the Ki [7] was greater than 10 µM, the Ki [8] was greater than 10 µM and the Ki [9] was 3.82 µM. The Ki [10] was greater than 10 µM, the Ki [11] was greater than 10 µM and the Ki [12] was greater than 10 µM. The Ki [13] was greater than 10 µM, the Ki [14] was greater than 10 µM and the Ki [15] was greater than 10 µM. For the same molecule, the Ki [16] was greater than 10 µM, the Ki [17] was greater than 10 µM and the Ki [18] was greater than 10 µM. It also gave a Ki [19] greater than 10 µM, a Ki [20] greater than 10 µM and a Ki [21] greater than 10 µM. The Ki [22] was greater than 10 µM, the Ki [23] was greater than 10 µM and the Ki [24] was greater than 10 µM. The Ki [25] was greater than 10 µM, the Ki [26] was greater than 10 µM and the Ki [27] was greater than 10 µM. It also gave a Ki [28] greater than 10 µM, a Ki [29] greater than 10 µM and a Ki [30] greater than 10 µM. The Ki [31] was greater than 10 µM, the Ki [32] was greater than 10 µM and the Ki [33] was greater than 10 µM. For the same molecule, the Ki [34] was greater than 10 µM, the Ki [35] was greater than 10 µM and the Ki [36] was greater than 10 µM. The Ki [37] was greater than 10 µM, the Ki [38] was greater than 10 µM and the Ki [39] was greater than 10 µM.
